Data: PMC10111420, “Optimization of Host Cell-Compatible, Antimicrobial Peptides Effective against Biofilms and Clinical Isolates of Drug-Resistant Bacteria” (ACS Infectious Diseases, 2023)
pEC50: −log10 of the molar value. ≈ marks a conversion by molar mass, not a printed value. Where “and” joins values, the source holds several entries; their conditions need not be identical. Identical values can stand only once. Where a SMILES comes first, the peptide text is derived from it. [ ]: non-standard residue; d: D form. dAgb = N=C(N)NCC[C@@H](N)C(=O)O

What was measured:
S. aureus (ATCC 25923) = system: S. aureus (ATCC 25923)
Experimental: (§1) All peptide variants were synthesized and purified as described previously.[5],[7] They were tested in broth dilution in the presence and absence of 1 × 10^9 human RBCs per mL, 20% of the concentration in human blood, against Escherichia coli, K. pneumoniae, and Staphylococcus aureus. […] The toxicity of the variants was tested by measuring hemolysis as well as cytotoxicity against human WI-38 fibroblast cells.
(§2) Subcultures, prepared by inoculating 25 mL of fresh tryptic soy broth (TSB) with 200 μL of an overnight culture, were grown to log phase (OD600 = 0.3–0.6), after which cell counts were determined by measuring the OD600 (1.0 = 5 × 10^8 CFU/mL for E. coli, 4 × 10^8 CFU/mL for K. pneumoniae, 4 × 10^8 CFU/mL for P. aeruginosa, 1.5 × 10^8 CFU/mL for S. aureus). Bacterial cells were diluted to appropriate concentrations in TSB. We used the following clinical bacterial isolates of Klebsiella pneumoniae in this study: Strains KP6, KP46, NDM-1, KP396, and KP398 have been previously described.[43] ST58 strains C2, C3, and I2 are also described.[41] […] MRSA, […] S. aureus strain, is SAP400, a USA400 strain of community-acquired MRSA. […] The second independent set of K. pneumoniae isolates are previously described.[20],[21]
(§3) The antibiotics were serially diluted by a factor of 2:3 horizontally across 96-well plates from Corning, 25 μL per well. One column was reserved for controls. For the assays performed in the presence of RBC, type O+ human RBCs at 0 or 2.5 × 10^9 cells/mL were added in 50 μL aliquots to all wells. Following a 30-min incubation, 50 μL of TSB, inoculated with 5 × 10^5 CFU/mL, was added to all wells, and plates were incubated overnight at 37 °C. Following overnight incubation at 37 °C, the OD600 was measured (values of less than 0.1 were considered sterilized). To assess bacterial growth in the assays with RBC, the OD600 was measured after a second-day inoculation with 10 μL of solution from the original plate added to 100 μL of sterile TSB followed by overnight incubation.
(§4) Experiments were repeated four to eight times independently, with pairs of replicate measurements on each 96-well plate. After overnight growth, optical densities were measured at 660 nm and the sterilized wells were identified by having O.D. < 0.08. Nonsterilized wells were nearly opaque with OD > 0.6. For each measurement, we recorded the largest dilution that sterilized the bacteria. Statistics are done on dilution numbers, rather than calculated concentrations, because only the former have normal distributions.

[1] = system: WI-38 human fibroblast cells; assay: in vitro; assay type: cell-based
human RBCs = assay type: cell-based
Method in brief: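 Washed human O+ erythrocytes (2 × 10^8 cells/mL stock, mixed 1:1) were incubated with peptide serially diluted from 100 μM in PBS for 1 h at 37 °C. Released hemoglobin was read at 410 nm in supernatant; fractional hemolysis calculated against 1% Triton (100%) and 0% lysis controls, averaged over ≥3 experiments.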

[2] = system: K. pneumoniae subsp. pneumoniae (ATCC 13883)
Experimental: as §1, §2, §3, §4

P. aeruginosa = conditions: cited from earlier work
[3] = system: P. aeruginosa PAO1 (EYFP) pellicle biofilms; assay: Pellicle biofilm assay, viable cell enumeration; assay type: cell-based, Pseudomonas aeruginosa; conditions: 2 μM, 48 h pellicle biofilm, 24 h challenge, dispersing and counting viable cells
Experimental: Here, we directly compare the antibiofilm activity of D-CONGA and D-CONGA-Q7 using a mature pellicle biofilm of P. aeruginosa.[22] […] To determine the susceptibility of pellicle biofilms to D-CONGA and D-CONGA-Q7, we cultured 2-day-old biofilms as described in the Methods section. The coverslip-adhered biofilms were exposed to challenge solution for 24 h prior to staining with SYTOX red and imaging with CLSM for EYFP, which indicates live cells, and for SYTOX Red which stains dead cells and extracellular DNA. […] The % cell survival was quantitated in two ways: (i) COMSTAT was used to compare biofilm biomass in CLSM images by estimating the biofilm biovolume, which is calculated as the overall volume/substratum area (μm^3/μm^2).[24],[25] […] (ii) The biofilms were dispersed mechanically for subsequent enumeration of viable cells such that % survival is expressed as the ratio (CFUuntreated biofilm/CFUtreated biofilm).
The susceptibility of biofilm-embedded P. aeruginosa cells to the antimicrobial peptides was studied as reported previously[23] using a P. aeruginosa PAO1 strain expressing enhanced yellow fluorescent protein (EYFP).[22] The EYFP-expressing P. aeruginosa strain was routinely grown in Pseudomonas Isolation (PI) media (20 g/L peptone, 0.3 g/L, MgCl2·6H2O, 10 g/L, K2SO4, 25 mg/L irgasan, and 20 mL/L glycerol, pH 7.0). […] Iron supplementation was carried out by addition of a small volume of filter-sterilized 10 mM (NH4)2Fe(SO4)2 (pH ∼ 2.0) solution.
In brief: Starter cultures (5 mL PI media supplemented with 10 μM Fe) were grown (14 h) from a single-colony shaking (220 rpm) at 37 °C. To grow the pellicle biofilms, starter cultures were diluted to OD600 = 0.001 in 4 mL of PI media supplemented with 20 μM Fe, placed in 35 × 10 mm Petri dishes, and incubated statically at 30 °C for 48 h. The pellicles were harvested using circular (1.5 cm diameter) glass coverslips by gently allowing the surface of a coverslip to contact the biofilm at the air–liquid interface. […]

CC(C)C[C@@H](NC(=O)[C@@H](CCNC(=N)N)NC(=O)[C@@H](CCNC(=N)N)NC(=O)[C@@H](C)NC(=O)[C@@H](Cc1c[nH]c2ccccc12)NC(=O)[C@@H](CCCNC(=N)N)NC(=O)[C@H](N)CCCNC(=N)N)C(=O)N[C@H](C)C(=O)N[C@H](Cc1ccccc1)C(=O)N[C@H](C)C(=O)N[C@H](Cc1ccccc1)C(=O)N[C@H](CCCNC(=N)N)C(=O)N[C@H](CCCNC(=N)N)C(N)=O [D-CONGA- NorR] (H-[dR][dR][dW][dA][dAgb][dAgb][dL][dA][dF][dA][dF][dR][dR]-NH2; N-terminus and C-terminus assumed)
MIC in Broth Dilution, S. Aureus (S. aureus (ATCC 25923)): 17 µM (≈ 29.5 µg/mL)

CC(C)C[C@@H](NC(=O)[C@@H](CCCNC(=N)N)NC(=O)[C@@H](CCCNC(=N)N)NC(=O)[C@@H](C)NC(=O)[C@@H](Cc1c[nH]c2ccccc12)NC(=O)[C@@H](CCCNC(=N)N)NC(=O)[C@H](N)CCCNC(=N)N)C(=O)N[C@H](C)C(=O)N[C@H](Cc1ccccc1)C(=O)N[C@H](C)C(=O)N[C@H](Cc1ccccc1)C(=O)N[C@H](CCCNC(=N)N)C(N)=O [D-CONGA-ΔR13] (H-[dR][dR][dW][dA][dR][dR][dL][dA][dF][dA][dF][dR]-NH2; N-terminus and C-terminus assumed)
pEC50 [1]: 3.52 | Hemolysis at 100 μM (fractional hemolysis) (human RBCs): 0.03 | MIC in Broth Dilution, K. Pneumoniae [2]: 2.1 µM (≈ 3.37 µg/mL)

colistin
reported MIC (P. aeruginosa): 1 μg/mL and 0.79 μM | Reduction of biofilm CFU [3]: no detectable activity
